Experiments:
Rabbits = assay: Lacrimal Gland Inflammation-Induced Dry Eye in Rabbits (corneal staining, tear breakup time); type: in vivo; settings: topical ocular BID, rabbit ConA dry eye
Description: A more detailed description of the assay used herein may be found in Naglehout, T J et al. 2005, “Preservation of Tear Film Integrity and Inhibition of Corneal Injury by Dexamethasone in a Rabbit Model of Lacrimal Gland Inflammation-Induced Dry Eye,” J. Ocular Pharm. Ther., 21:2. 139-148, the disclosure of which is hereby incorporated by reference as if written herein in its entirety.
Rabbits (n=4/group) were randomized into treatment groups and dosed topically BID with maxidex vehicle or test drug beginning one day prior to initiation of dry eye. Each rabbit received bilateral lacrimal gland injections of saline or ConA (300 μg/30 μl) and topical ocular dosing was continued BID throughout the study.
Desiccation was initiated 1-2 hours following lacrimal gland injection by placing conscious rabbits in the environmental chamber (10-15% humidity/72° F.). Following 72 consecutive hours of exposure to this dry environment, the animals were anesthetized and sutures were placed in each upper and lower eyelid and lifted to form a corneal/conjunctival cup. Methylene blue dye (1 mL, 1% in dH2O) was added to the cup for three minutes and the excess removed by washing with 200 mL BSS®. The contralateral eye was then stained using the same procedure. Rabbits were euthanized immediately following the staining procedure and the eyes were excised. The corneas were isolated with a trephine and the 9.5-mm punch of the cornea was placed in 2 mL acetone/saturated sodium sulfate (7:3, vol./vol.). Absorbance of the extracted dye was determined at 660 nm.
TBUT was quantified in a separate group of treated animals. TBUT was determined by instilling 5 μL sodium fluorescein into the cul de sac and manually blinking the lids to distribute the fluorescein within the tear film. Under slit lamp observation, the eye was held open and the time whereby one or more black spots or streaks appeared in the precorneal tear film was recorded. The rabbits were euthanized 3 days following ConA injection.

Stability Protocol = type: physicochemical; settings: pH 7.4 sodium phosphate buffer, preliminary shelf life (T90) estimated from stressed samples
Procedure: About 3 mg of a compound was dissolved in 3 mL of acetonitrile/water mixture (50/50). 100 μL of the stock solution was added to 20 mL each of 0.025 M pH 5.0 sodium acetate buffer (A5.0), 0.025 M pH 5.0 citrate buffer (C5.0) and 0.025 M pH 7.4 sodium phosphate buffer (P7.4). A two mL aliquot of each solution was kept in a glass vial equipped a cap lined with Teflon. Two vials containing the solution were stored at 4° C. or −20° C. as control. Other aliquots were stressed at RT, 45° C. or 75° C. for specified time check points, e.g. 1 day, 1 w, 2 w, 4 w, 8 w,12 w. The stressed samples in duplicate were assayed against the control using HPLC. The results were reported in % degradation. Preliminary shelf life (T90) was estimated assuming the rate of chemical degradation is double when the temperature is up 10° C.

Solubility Protocol = type: physicochemical; settings: aqueous buffer, thermodynamic from solid; pH 7.4, 0.1 M sodium phosphate buffer
Procedure: About 5 mg of a compound was mixed with 500 μL of pH 7.4, 0.1 M sodium phosphate buffer. The mixture was adjusted to the original pH of 7.4 and then mixed overnight or longer via rotary mixing. The sample was checked for pH and then filtered through a 0.45 μm filter. If the pH drifted away, the sample was adjusted to its original pH and mixed for at least 15 minutes before filtration. The filtrate was analyzed using HPLC.

Structure (SMILES)	Activity at Percent Concentration Tested (Rabbits; 1 × 10^−2 percent)	Activity at Percent Concentration Tested (Rabbits; 1 × 10^−4 percent)	Activity at Percent Concentration Tested (Rabbits; 1 × 10^−6 percent)	Stability, pH 7.4 (Stability Protocol)	solubility (Solubility Protocol)	Activity at Percent Concentration Tested (Rabbits; 1 percent)	Activity at Percent Concentration Tested (Rabbits; 1 × 10^−1 percent)
COc1ccc2c(Nc3c(C)cncc3C)cc(=O)[nH]c2c1OCC1CC1 [Example 8, 8-(Cyclopropylmethoxy)-4-(3,5-dimethylpyridin-4-ylamino)-7-methoxyquinolin-2(1H)-one]	Inactive	Inactive	Inactive	+ (+ indicates ≧1 Year)	–	–	–
COc1ccc2c(Nc3c(C)cncc3C)cc(=O)[nH]c2c1OC1CCCC1 [Example 5, 8-(Cyclopentyloxy)-4-(3,5-dimethylpyridin-4-ylamino)-7-methoxyquinolin-2(1H)-one]	Inactive	Inactive	Inactive	+ (+ indicates ≧1 Year)	≥ 1000 µg/mL	–	–
COc1ccc2c(Nc3c(Cl)cncc3Cl)cc(=O)[nH]c2c1OC1CCCC1 [Example 1, 8-(Cyclopentyloxy)-4-(3,5-dichloropyridin-4-ylamino)-7-methoxyquinolin-2(1H)-one]	Inactive	–	–	+ (+ indicates ≧1 Year)	≥ 1000 µg/mL	Inactive	Inactive
